This is an account of results in paper PMC9782626, “Copper(II) Complexes of 5–Fluoro–Salicylaldehyde: Synthesis, Characterization, Antioxidant Properties, Interaction with DNA and Serum Albumins” (Molecules, 2022).

The nature of this experiment: DPPH radical scavenging assay. It counts as biochemical. As to conditions: compound 0.1 mM. An excerpt:
For the above reasons, the antioxidant ability of 5–F–saloH and Cu(II) complexes 1–5 has been evaluated via their scavenging activity towards DPPH and ABTS radicals, as well as the ability to reduce H2O2, and in comparison with that of well-known antioxidant agents such as nordihydroguaiaretic acid (NDGA), butylated hydroxytoluene (ΒHΤ), 6–hydroxy–2,5,7,8–tetramethylchromane–2–carboxylic acid (trolox) and L–ascorbic acid (these are the most commonly used standard reference antioxidant agents). The DPPH-radical assay was developed in the 1950s and this method has been used to assess the antioxidant capacity of several metal complexes. The DPPH–scavenging ability of compounds has often been related to their ability to prevent ageing, cancer and inflammation. The ability of a compound to scavenge the cationic ABTS radicals (ABTS^+●) has been considered a measure of its total antioxidant activity. Further, hydrogen peroxide has the ability to penetrate biological membranes and, although it is not very reactive itself, it can sometimes be toxic since it may give rise to hydroxyl radicals in cells. For this reason, the removal of H2O2 is very important for the protection of living systems. When a compound is incubated with H2O2 using a peroxidase assay system, the loss of H2O2 can be measured.
S1 Antioxidant activity assay
The antioxidant activity of the compounds was evaluated via their ability to scavenge in vitro free radicals such as DPPH and ABTS and to reduce H 2O2. All the experiments were carried out at least in triplicate and the standard deviation of absorbance was less than 10% of the mean.
S1.1 Determination of the reducing activity of the radical DPPH
To an ethanolic solution of DPPH (0.1 mM) an equal volume solution of the compounds (0.1 mM) in ethanol was added. Absolute ethanol was also used as control solution. The absorbance at 517 nm was recorded at room temperature after 30 and 60 min, in order to examine the possible existence of a potential time-dependence of the DPPH radical scavenging act iv ity [S 1]. The DPPH -scavenging activity of the compounds was expressed as the percentage reduction of the absorbance values of the initial DPPH solution ( DPPH%). N DGA and BHT were used as reference comp ounds. […]
A general note: Loss of DPPH colour is used to gauge radical scavenging.

`O=Cc1cc(F)ccc1[O-].O=Cc1cc(F)ccc1[O-].[Cu+2]` [Complex 1, [Cu(5–F–salo)2]]: the “DPPH% (30 min), % DPPH–scavenging ability” value (“DPPH% (30 min)” for short) was determined as 9.05 ± 0.54% and the “DPPH% (60 min), % DPPH–scavenging ability” value is 10.79 ± 0.20%.
The corresponding values for `O=Cc1cc(F)ccc1[O-].O=[N+]([O-])[O-].[Cu+2].c1cnc2c(c1)ccc1cccnc12` [Complex 4, [Cu(5–F–salo)(phen)(NO3)]] are 6.15 ± 0.33% and 4.64 ± 0.10%.
The corresponding values for `O=Cc1cc(F)ccc1[O-].[Cl-].[Cu+2].c1ccc(Nc2ccccn2)nc1` [Complex 2, [Cu(5–F–salo)(bipyam)Cl]] are 7.54 ± 0.20% and 7.42 ± 0.50%.
As to `O=Cc1cc(F)ccc1[O-].O=[N+]([O-])[O-].[Cu+2].c1ccc(-c2ccccn2)nc1` [Complex 5, [Cu(5–F–salo)(bipy)(NO3)]], the “DPPH% (30 min)” value stood at 7.19 ± 0.26% and the “DPPH% (60 min), % DPPH–scavenging ability” value is reported as 4.06 ± 0.20%.
In the case of `CO.Cc1ccc2ccc3ccc(C)nc3c2n1.O=Cc1cc(F)ccc1[O-].[Cl-].[Cu+2]` [Complex 3, [Cu(5–F–salo)(neoc)Cl].CH3OH], the “DPPH% (30 min)” value is recorded as 7.42 ± 0.54%.
